Patent US10077243B2, “Compounds for treating disorders mediated by metabotropic glutamate receptor 5, and methods of use thereof” (Sunovion Pharmaceuticals Inc., priority 2009, dated 2018)

Molecular target: T1, human mGluR5 (Homo sapiens, UniProt P41594)
T1 construct: expressed in transfected cells; host or cells: HEK293 cells stably expressing rat GLAST (EAAT1), stably transfected with pcDNAzeo3.1 carrying synthetic human mGluR5 DNA; zeocin-selected single clones
Assay: In vitro cell-based FLIPR calcium assay for positive modulation of the activation of mGluR5 by glutamate (PAM EC50)
Conditions: HEK293/GLAST cells expressing recombinant human mGluR5; FLIPR calcium signal; glutamate added at its EC20; read-out: mGluR5 PAM EC50
How it was run: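 PAM activity was measured as FLIPR calcium fluorescence in the presence of an EC20 glutamate concentration determined daily from a glutamate concentration-response curve. Cells were HEK293/GLAST clones expressing mGluR5, dye-loaded at 25 °C for 45–60 min in HEPES-buffered HBSS; vehicle control was 0.3% DMSO.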

T1 sequence (P41594 21-1212): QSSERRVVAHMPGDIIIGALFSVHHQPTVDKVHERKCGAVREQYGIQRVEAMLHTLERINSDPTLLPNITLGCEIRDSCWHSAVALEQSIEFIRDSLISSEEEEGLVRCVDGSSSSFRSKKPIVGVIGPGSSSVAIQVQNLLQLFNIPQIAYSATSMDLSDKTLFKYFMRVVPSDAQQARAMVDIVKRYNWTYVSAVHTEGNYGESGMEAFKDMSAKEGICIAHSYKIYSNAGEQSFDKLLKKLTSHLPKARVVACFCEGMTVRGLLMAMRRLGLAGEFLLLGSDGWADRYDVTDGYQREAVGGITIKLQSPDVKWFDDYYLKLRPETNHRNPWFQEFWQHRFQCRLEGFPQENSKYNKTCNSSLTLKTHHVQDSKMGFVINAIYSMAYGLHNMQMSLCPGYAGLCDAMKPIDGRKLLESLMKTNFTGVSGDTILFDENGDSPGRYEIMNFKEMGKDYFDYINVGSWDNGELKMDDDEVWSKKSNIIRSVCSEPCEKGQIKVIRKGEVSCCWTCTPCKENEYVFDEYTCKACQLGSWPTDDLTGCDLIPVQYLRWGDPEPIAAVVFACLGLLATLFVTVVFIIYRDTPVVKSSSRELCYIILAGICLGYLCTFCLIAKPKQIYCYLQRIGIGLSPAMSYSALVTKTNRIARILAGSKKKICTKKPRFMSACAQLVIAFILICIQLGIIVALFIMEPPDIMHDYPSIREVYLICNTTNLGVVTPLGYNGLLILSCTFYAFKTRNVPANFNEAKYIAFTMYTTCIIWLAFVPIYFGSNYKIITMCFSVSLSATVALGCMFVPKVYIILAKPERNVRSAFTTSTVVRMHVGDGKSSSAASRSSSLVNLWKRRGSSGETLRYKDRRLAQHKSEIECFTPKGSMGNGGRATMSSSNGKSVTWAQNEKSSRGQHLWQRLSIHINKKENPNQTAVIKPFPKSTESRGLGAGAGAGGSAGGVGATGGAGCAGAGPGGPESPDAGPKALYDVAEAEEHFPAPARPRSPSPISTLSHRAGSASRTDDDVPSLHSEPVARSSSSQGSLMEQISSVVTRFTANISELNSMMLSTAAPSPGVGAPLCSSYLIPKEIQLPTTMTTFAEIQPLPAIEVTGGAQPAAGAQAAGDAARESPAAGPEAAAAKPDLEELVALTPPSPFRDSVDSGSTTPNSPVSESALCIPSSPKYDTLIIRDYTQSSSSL

## O=c1c2ccc(C#Cc3ccc(F)nc3)cc2nc2n1CCC1(CC2)OCCO1 [Example 7.15]
  EC50: 30 to 100 nM

## O=c1c2ccc(C#Cc3ccncc3F)cc2nc2n1CCC1(CC2)OCCO1 [Example 7.16]
  EC50: 100 to 300 nM

## O=c1c2ccc(C#Cc3ccnc(F)c3)cc2nc2n1CCC1(CC2)OCCO1 [Example 7.17]
  EC50: 30 to 100 nM

## N#Cc1cc(C#Cc2ccc3c(=O)n4c(nc3c2)CCC2(CC4)OCCO2)ccc1F [Example 7.19]
  EC50: 300 to 1000 nM

## Cc1cccc(C#Cc2ccc3c(=O)n4c(nc3c2)CCC2(CC4)OCCO2)c1 [Example 7.31]
  EC50: 100 to 300 nM

## Cc1ccc(C#Cc2ccc3c(=O)n4c(nc3c2)CCC2(CC4)OCCO2)cc1 [Example 7.32]
  EC50: 300 to 1000 nM

## N#Cc1cccc(C#Cc2ccc3c(=O)n4c(nc3c2)CCC2(CC4)OCCO2)c1 [Example 7.38]
  EC50: 30 to 100 nM

## N#Cc1ccc(C#Cc2ccc3c(=O)n4c(nc3c2)CCC2(CC4)OCCO2)cc1 [Example 7.39]
  EC50: 300 to 1000 nM

## O=c1c2ccc(C#Cc3ccccc3C(F)(F)F)cc2nc2n1CCC1(CC2)OCCO1 [Example 7.40]
  EC50: 100 to 300 nM

## Cc1cccc(C#Cc2ccc3c(=O)n4c(nc3c2)CCC2(CC4)OCCO2)n1 [Example 7.46]
  EC50: 100 to 300 nM

## Cc1cc(C#Cc2ccc3c(=O)n4c(nc3c2)CCC2(CC4)OCCO2)ccn1 [Example 7.47]
  EC50: 10 to 30 nM

## Cc1ccnc(C#Cc2ccc3c(=O)n4c(nc3c2)CCC2(CC4)OCCO2)c1 [Example 7.48]
  EC50: 30 to 100 nM

## O=c1c2ccc(C#CC3=CCCC3)cc2nc2n1CCC1(CC2)OCCO1 [Example 7.51]
  EC50: 100 to 300 nM

## O=c1c2ccc(C#CC3CCCC3)cc2nc2n1CCC1(CC2)OCCO1 [Example 7.52]
  EC50: 300 to 1000 nM

## O=c1c2ccc(C#CC3=CCCCC3)cc2nc2n1CCC1(CC2)OCCO1 [Example 7.53]
  EC50: 300 to 1000 nM

## O=c1c2ccc(C#CC3CCCCC3)cc2nc2n1CCC1(CC2)OCCO1 [Example 7.54]
  EC50: 300 to 1000 nM

## O=c1c2ccc(C#Cc3ccco3)cc2nc2n1CCC1(CC2)OCCO1 [Example 7.55]
  EC50: 30 to 100 nM

## O=c1c2ccc(C#Cc3ccoc3)cc2nc2n1CCC1(CC2)OCCO1 [Example 7.56]
  EC50: 30 to 100 nM

## O=c1c2ccc(C#Cc3cccs3)cc2nc2n1CCC1(CC2)OCCO1 [Example 7.57]
  EC50: 30 to 100 nM

## Cc1ccsc1C#Cc1ccc2c(=O)n3c(nc2c1)CCC1(CC3)OCCO1 [Example 7.58]
  EC50: 300 to 1000 nM

## O=c1c2ccc(C#Cc3ccsc3)cc2nc2n1CCC1(CC2)OCCO1 [Example 7.59]
  EC50: 10 to 30 nM

## O=c1c2ccc(C#Cc3nccs3)cc2nc2n1CCC1(CC2)OCCO1 [Example 7.60]
  EC50: 300 to 1000 nM

## Cc1csc(C#Cc2ccc3c(=O)n4c(nc3c2)CCC2(CC4)OCCO2)n1 [Example 7.61]
  EC50: 30 to 100 nM

## O=c1c2ccc(C#Cc3cscn3)cc2nc2n1CCC1(CC2)OCCO1 [Example 7.62]
  EC50: 300 to 1000 nM

## Cc1scnc1C#Cc1ccc2c(=O)n3c(nc2c1)CCC1(CC3)OCCO1 [Example 7.63]
  EC50: 300 to 1000 nM

## Cc1noc(C)c1C#Cc1ccc2c(=O)n3c(nc2c1)CCC1(CC3)OCCO1 [Example 7.67]
  EC50: 10 to 30 nM

## Cn1cc(C#Cc2ccc3c(=O)n4c(nc3c2)CCC2(CC4)OCCO2)cn1 [Example 7.69]
  EC50: 100 to 300 nM

## CN1CCc2nc3cc(C#Cc4ccc(F)cc4)ccc3c(=O)n2CC1 [Example 8.1, 8-((4-fluorophenyl)ethynyl)-3-methyl-2,3,4,5-tetrahydro-[1,4]diazepino[7,1-b]quinazolin-11(1H)-one]
  EC50: 100 to 300 nM

## CCN1CCc2nc3cc(C#Cc4ccc(F)cc4)ccc3c(=O)n2CC1 [Example 8.2, 3-ethyl-8-((4-fluorophenyl)ethynyl)-2,3,4,5-tetrahydro-[1,4]diazepino[7,1-b]quinazolin-11(1H)-one]
  EC50: 100 to 300 nM

## CC(C)N1CCc2nc3cc(C#Cc4ccc(F)cc4)ccc3c(=O)n2CC1 [Example 8.3, 8-((4-fluorophenyl)ethynyl)-3-isopropyl-2,3,4,5-tetrahydro-[1,4]diazepino[7,1-b]quinazolin-11(1H)-one]
  EC50: 100 to 300 nM

## O=c1c2ccc(C#Cc3cccc(F)c3)cc2nc2n1CCNCC2 [Example 8.6, 8-((3-fluorophenyl)ethynyl)-2,3,4,5-tetrahydro-[1,4]diazepino[7,1-b]quinazolin-11(1H)-one]
  EC50: 100 to 300 nM

## CN1CCc2nc3cc(C#Cc4cccc(F)c4)ccc3c(=O)n2CC1 [Example 8.7, 8-((3-fluorophenyl)ethynyl)-3-methyl-2,3,4,5-tetrahydro-[1,4]diazepino[7,1-b]quinazolin-11(1H)-one]
  EC50: 30 to 100 nM

## CCCN1CCc2nc3cc(C#Cc4cccc(F)c4)ccc3c(=O)n2CC1 [Example 8.8, 8-((3-fluorophenyl)ethynyl)-3-propyl-2,3,4,5-tetrahydro-[1,4]diazepino[7,1-b]quinazolin-11(1H)-one]
  EC50: 100 to 300 nM

## O=c1c2ccc(C#Cc3cccc(F)c3)cc2nc2n1CCN(Cc1ccccc1)CC2 [Example 8.9, 3-benzyl-8-((3-fluorophenyl)ethynyl)-2,3,4,5-tetrahydro-[1,4]diazepino[7,1-b]quinazolin-11(1H)-one]
  EC50: 10 to 30 nM

## COCCN1CCc2nc3cc(C#Cc4cccc(F)c4)ccc3c(=O)n2CC1 [Example 8.10, 8-((3-fluorophenyl)ethynyl)-3-(2-methoxyethyl)-2,3,4,5-tetrahydro-[1,4]diazepino[7,1-b]quinazolin-11(1H)-one]
  EC50: 100 to 300 nM

## O=c1c2ccc(C#Cc3cccc(F)c3)cc2nc2n1CCN(C1CCC1)CC2 [Example 8.11, 3-cyclobutyl-8-((3-fluorophenyl)ethynyl)-2,3,4,5-tetrahydro-[1,4]diazepino[7,1-b]quinazolin-11(1H)-one]
  EC50: 300 to 1000 nM

## C=CCN1CCc2nc3cc(C#Cc4cccc(F)c4)ccc3c(=O)n2CC1 [Example 8.12, 3-allyl-8-((3-fluorophenyl)ethynyl)-2,3,4,5-tetrahydro-[1,4]diazepino[7,1-b]quinazolin-11(1H)-one]
  EC50: 10 to 30 nM

## O=c1c2ccc(C#Cc3cccc(F)c3)cc2nc2n1CCN(C1CCOC1)CC2 (stereo not drawn) [Example 8.13, 8-((3-fluorophenyl)ethynyl)-3-(tetrahydrofuran-3-yl)-2,3,4,5-tetrahydro-[1,4]diazepino[7,1-b]quinazolin-11(1H)-one acetonitrile]
  EC50: 100 to 300 nM

## N#CCN1CCc2nc3cc(C#Cc4cccc(F)c4)ccc3c(=O)n2CC1 [Example 8.14, 2-(8-((3-fluorophenyl)ethynyl)-11-oxo-1,2,4,5-tetrahyrdro-[1,4]diazepino[7,1-b]quinazolin-3(11H)-yl)acetonitrile]
  EC50: 10 to 30 nM

## CNC(=O)CN1CCc2nc3cc(C#Cc4cccc(F)c4)ccc3c(=O)n2CC1 [Example 8.15, 2-(8-((3-fluorophenyl)ethynyl)-11-oxo-1,2,4,5-tetrahydro-[1,4]diazepino[7,1-b]quinazolin-3(11H)-yl)-N-methylacetamide]
  EC50: 100 to 300 nM

## O=c1c2ccc(C#Cc3cccc(F)c3)cc2nc2n1CCN(CC1CCCO1)CC2 (stereo not drawn) [Example 8.16, 8-((3-fluorophenyl)ethynyl)-3-((tetrahydrofuran-2-yl)methyl)-2,3,4,5-tetrahydro-[1,4]diazepino[7,1-b]quinazolin-11(1H)-one]
  EC50: 100 to 300 nM

## CC(=O)N1CCc2nc3cc(C#Cc4cccc(F)c4)ccc3c(=O)n2CC1 [Example 8.17, 3-acetyl-8-((3-fluorophenyl)ethynyl)-2,3,4,5-tetrahydro-[1,4]diazepino[7,1-b]quinazolin-11(1H)-one]
  EC50: 100 to 300 nM
